The NIST ThermoML archive (doi:10.1007/s10765-011-1128-2)

Conditions: Crystal

O [water]
Conditions	vapor or sublimation pressure [kPa]
223.15 K	0.003925
228.15 K	0.007147
233.15 K	0.01277
238.14 K	0.02221
243.16 K	0.03791
248.16 K	0.06315
253.14 K	0.103
258.15 K	0.165
263.15 K	0.2596
268.15 K	0.4016
273.16 K	0.6117
